test system: L. crispatus and E. coli; test: Therapeutic effect protocol: L. crispatus / E. coli co-culture in LAPT-g medium with carbon source; format: cell-based; conditions: therapeutic agent (carbon source) 1 wt/vol %; co-culture incubated anaerobically at 37° C.; measured 36 hours after inoculation
Experimental: Colonies of L. crispatus and E. coli were prepared as follows. A colony of L. crispatus was transferred to 7 ml MRS broth and incubated anaerobically (using BD GasPak EZ anaerobe container system with indicator) at 37° C. without shaking for 18-20 hours. A colony of E. coli was transferred to 5m1 TSB broth and incubated aerobically (shaking at 100 rpm) at 37° C. for 18-20 hours.
Colonies were then inoculated as follows. Bacterial cultures were gently vortexed and 1 mL of each culture was transferred to a corresponding 2.0 mL micro-centrifuge tube and then centrifuged for two minutes at 14,500 rpm. The cultural supernatant was removed and the cell pellet was re-suspended in 1 mL of 0.95% (wt/vol %) saline. The re-suspended colony was then centrifuged for two minutes at 14,500 rpms and the supernatant was removed. For L. crispatus, the pellet was re-suspended in 1 mL of 0.95% saline to achieve ˜10^7 -10^8 cfu/mL. For E. coli the pellet was re-suspended in 1 mL of 0.95% saline to achieve ˜10^8-10^9 cfu/mL.
Media were prepared as follows.
All of the ingredients in Table 1 were combined and the pH was adjusted to 6.5. The media were then autoclaved for 20 minutes at 125° C. To evaluate the effect of various saccharides and organic acids (noted as carbon sources below), the following samples were prepared:
Five milliliters (5 mL) of each medium was transferred to a test tube in duplicates for subsequent inoculation. A master mixture of L. crispatus and E. coli, prepared as described above, was prepared in 1,000:1 ratio. Each (5 ml) test tube was inoculated with the master mixture to give 10^5-10^6 total CFU L. crispatus and 100-1,000 total CFU E. coli per tube.
To establish a negative control, one tube was vortexed and 100 μL was removed to determine the initial cell concentrations by serial dilutions and plating (2 plates per dilution). L. crispatus is selected on MRS agar plates incubated anaerobically at 37° C. for two days. E. coli is selected on TSA plates incubated aerobically at 37° C. for one day. The co-cultures were incubated in an anaerobic container with BD GasPaks at 37° C. for 36 hours.
The effect of the carbon source on the ratio of L. crispatus to E. coli was measured 36 hours after inoculation. The co-culture tube was vortexed and 100 μL was removed to determine the final cell concentrations by serial dilutions and plating (2 plates per dilution). L. crispatus is selected on MRS agar plates incubated anaerobically at 37° C. for two days. E. coli is selected on TSA plates incubated aerobically at 37° C. for one day.
The therapeutic effect of the formulation was then measured using the assay described above in the Test Methods section above. The therapeutic effect is summarized below as the ratio of L. crispatus to E. coli.

| Compound | L. crispatus/ E. coli ratio |
| --- | --- |
| Maltotriose [Sample 5] | 535 |
| Palatinose [Sample 6] | 600 |
| O=CC[C@H](O)[C@H](O)CO [Sample 2, 2-Deoxy-D-Ribose] | 161 |
| OC[C@H]1O[C@@](CO)(O[C@H]2O[C@H](CO)[C@@H](O[C@H]3O[C@H](CO)[C@@H](O)[C@H](O)[C@H]3O)[C@H](O)[C@H]2O)[C@@H](O)[C@@H]1O [Sample 3, Erlose] | 32.1 |
| OC[C@H]1O[C@@](CO)(OC[C@@]2(O[C@H]3O[C@H](CO)[C@@H](O)[C@H](O)[C@H]3O)O[C@H](CO)[C@@H](O)[C@@H]2O)[C@@H](O)[C@@H]1O [Sample 1, 1-Kestose] | 640 |
| OC[C@@H](O)[C@@H](O[C@H]1O[C@H](CO)[C@@H](O)[C@H](O)[C@H]1O)[C@H](O)[C@@H](O)CO [Sample 4, Maltitol] | 202 |

From US20220257622A1, “COMPOSITION FOR MAINTAINING LACTOBACILLUS DOMINANCE” (Kimberly-Clark Worldwide, Inc., priority 2015, published 2022)
